This experiment has as its system CCRF-CEM. Description: Cytotoxicity against human CCRF-CEM cells. The format is functional, cell-based.

The values below come from ChEMBL document CHEMBL1158863, “Oxidations of vincristine catalyzed by peroxidase and ceruloplasmin” (J Nat Prod, 1997).

Converted amounts (≈) assume the structure as drawn.

What is called IC50 is the midpoint of a concentration-inhibition curve. A low value points to inhibition by little substance. The compound `CC[C@H](O)C[C@@H]1CN(C=O)CCc2c([nH]c3ccccc23)[C@@](C(=O)OC)(c2cc3c(cc2OC)N(C=O)[C@H]2[C@@](O)(C(=O)OC)[C@H](OC(C)=O)[C@]4(CC)C=CCN5CC[C@]32[C@@H]54)C1` gave a half-maximal inhibitory concentration (IC50) of 7.1 µg/mL (≈ 8.44 µM).
On to `CCC(=O)C[C@@H]1CN(C=O)CCc2c([nH]c3ccccc23)[C@@](C(=O)OC)(c2cc3c(cc2OC)N(C)[C@H]2[C@](O)(C(=O)OC)[C@H](OC(C)=O)[C@]4(CC)C=CCN5CC[C@]32[C@@H]54)C1` [CATHARININE], for which the 50% inhibitory concentration (IC50) was 7.7 µg/mL (≈ 9.33 µM).
For `CC[C@]1(O)C[C@@H]2CN(CCc3c([nH]c4ccccc34)[C@@](C(=O)OC)(c3cc4c(cc3OC)N(C)[C@H]3[C@@](O)(C(=O)OC)[C@H](OC(C)=O)[C@]5(CC)C=CCN6CC[C@]43[C@@H]65)C2)C1` [VINBLASTINE] the value was 0.03 µg/mL (≈ 0.037 µM).
Take `CC[C@]1(O)C[C@H]2CN(CCc3c([nH]c4ccccc34)[C@@](C(=O)OC)(c3cc4c(cc3OC)N(C=O)[C@H]3[C@@](O)(C(=O)OC)[C@H](OC(C)=O)[C@]5(CC)C=CCN6CC[C@]43[C@@H]65)C2)C1` [VINCRISTINE]: inhibition was half-maximal at 0.06 µg/mL (≈ 0.0727 µM) (IC50).
